Measurements taken from US20030104079A1, “Skin tissue regeneration promoters comprising ginsenoside Rb1” (Japan Science and Technology Corporation, Japan, priority 2000, published 2003).
Entries after “also recorded” stand apart in the source; their conditions may differ.

Tested on: open wound of rat skin
Test: Open wound healing by external or topical application to skin (propet ointment)
Format: in vivo, rats
From the text: For that purpose, for example, by using Wistar male rats (body weight about 300 g), the punch biopsies with diameter 6 mm were made in the dorsal region of animals after shaving under inhalation anesthesia to prepare 3 regions of open wound. Among them, 0.1 g of ophthalmic white Vaseline (Propet) containing 0.01% by weight or 0.001% by weight of ginsenoside Rb1 was spread once for every day in two regions, and in the remaining open wound, the equal amount of ophthalmic white Vaseline (propet) was spread. Nine days after preparing open wound, the skin including wound regions was photographed. Further, we have examined the effects of external or topical cutaneous spread of 0.0001% by weight, 0.00001% by weight or 0.000001% by weight of ginsenoside Rb1 by the same procedure. Experimental animals were euthanized by anesthetia immediately before photographing, then wound regions were dissected out after photographing or after dissecting out wound regions, photographing was performed. Thereafter, the wound region tissues were stored in the fixative. FIG. 5 and FIG. 6 are photographs in place of drawings.
The punch biopsy with diameter 6 mm was performed in the dorsal 6 regions of each animal under inhalation anesthesia to prepare open wound. Thereafter, 0.1 g of propet (ophthalmic white vaseline) containing ginsenoside Rb1 at the concentrations of 0.0001% by weight (10^−4% by weight), 0.00001% by weight (10^−5% by weight), 0.000001% by weight (10^−6% by weight), 0.0000001% by weight (10^−7% by weight) and 0.00000001% by weight (10^−8% by weight), respectively, was applied externally, once a day, for 9 days on each open wound. The equal amount of propet alone was applied externally or topically in the control animals. Then, immediately after euthanasia by anesthetization, the skin containing the open wound was dissected out and photographed. The collected skin tissue was preserved in a fixative. FIG. 12 is a photograph in place of drawing.
In each case, there are three wounds on the left side and three wounds on the right side, totally 6 marks of open wounds.
In the experimental cases hereinbefore explained, an area of open wound (flair region) applied externally only with propet is set as a denominator and an area of open wound administered externally with ginsenoside Rb1 at concentrations from 10^−4% by weight to 10^−8% by weight is set as a numerator, and ratio thereof is calculated. In FIG. 13, n=3 and single asterisk (*) indicates significant difference, P<0.05, and two asterisks (**) indicate significant difference, P<0.01. Statistical test was performed according to Scheffe's post hoc test.
Details of dihydroginsenoside Rb1 is described in the specification of PCT/JP00/04102 (Brain cell or nerve cell protecting agents comprising ginseng). The punch biopsy with diameter 6 mm was performed at 5 places in the dorsal region of rats (n=4) under inhalation anesthesia to prepare open wound. Thereafter, 0.1 g of propet containing dihydroginsenoside Rb1 at concentrations of 0.0001% by weight (10^−4% by weight), 0.00001% by weight (10^−5% by weight), 0.000001% by weight (10^−6% by weight) and 0.0000001% by weight (10^−7% by weight), respectively, was applied topically or externally, once a day, for 9 days onto each open wound. The equal amount of propet alone was applied externally or topically in the control animals. Then, immediately after euthanasia by anesthetization, the skin containing the open wound was dissected out and photographed. The collected skin tissue was preserved in a fixative. FIG. 14 is a photograph in place of drawing. In FIG. 14, four cases are shown, and from the upper column, the first case, the second case, the third case and the fourth case are shown.

## CC(C)=CCC[C@](C)(O[C@@H]1O[C@H](CO[C@@H]2O[C@H](CO)[C@@H](O)[C@H](O)[C@H]2O)[C@@H](O)[C@H](O)[C@H]1O)[C@H]1CC[C@]2(C)[C@@H]1[C@H](O)C[C@@H]1[C@@]3(C)CC[C@H](O[C@@H]4O[C@H](CO)[C@@H](O)[C@H](O)[C@H]4O[C@@H]4O[C@H](CO)[C@@H](O)[C@H](O)[C@H]4O)C(C)(C)[C@@H]3CC[C@]12C [ginsenoside Rb1]
0.0000001% by weight (10^−7% by weight) or less, i.e. 1 ng/g or less
  open wound reduction (FIG. 13): reduced significantly the open wound
10^−4% to 10^−8% by weight, n=3, Scheffe's post hoc test
  ratio of open wound area to propet alone (FIG. 13): wound healing was significantly promoted
Concentrations around 10^−8% by weight
  area of the open wound relative to control: about ¼
External administration of the low concentrations of ginsenoside Rb1
  growing hair in regions of wound healing (FIG. 12): growing hair was obviously observed
Extracutaneous administration of 0.000001% by weight
  hair restoration or hair growth from regenerated open wound: obvious hair restoration or hair growth
Ginsenoside Rb1 at 0.0001%, 0.00001%, 0.000001%, 0.0000001% or 0.00000001% by weight
  area of open wound region relative to control: ½-¼
Low concentrations, worked out from the area reduction
  volume of the open wound relative to control: about ⅛
Propet containing 0.00001% or 0.000001% by weight, compared with 0.0001% by weight
  effectiveness on open wound (FIG. 6): superior effectiveness as compared with propet containing 0.0001% by weight
Propet containing 0.001% by weight, 0.1 g once every day, day 9
  open wound area vs propet alone (FIG. 5): slightly reduced
Propet containing 0.01% by weight, 0.1 g once every day, day 9
  open wound vs propet alone control (FIG. 5): trivial; also recorded: no difference
Propet containing 10^−6% to 10^−8% by weight (10 ng/g to 100 pg/g), once a day for 9 days
  wound healing vs propet alone (FIG. 12): wound healing was obviously promoted
